The METLIN SMRT retention time set (Domingo-Almenara et al. 2019)

Experiment: gradient 5% acetonitrile 3 min, to 50% in 2 min, to 85% in 15 min, held 3 min, 100 µL/min
Conditions: column: Zorbax Extend-C18 2.1 x 50 mm; eluents: water / acetonitrile, 0.1% formic acid
How it was run: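 Retention times of pure standards were taken from adduct peaks that were selected by computer and manually inspected. Over 3 months, mixtures of ~100 molecules were run by HPLC–quadrupole time-of-flight mass spectrometry in positive and negative ionization mode. The Zorbax Extend-C18 column (2.1 × 50 mm, 1.8 μm) ran at 100 μL/min in water and acetonitrile, each containing 0.1% formic acid, with 40 μL dead volume and 900 μL dwell volume.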

## CC1CCCN(CCCNC(=O)c2nnc(-c3ccc(S(=O)(=O)N4CCOCC4)cc3)o2)C1 (centres undefined)
  RP-LC retention time: 634 s

## COc1ccc(Nc2nc(N)nc(CSc3nnc4sc5ccccc5n34)n2)cc1
  RP-LC retention time: 692 s

## COc1cc(CNC(=O)c2cc(C(C)(C)C)n3nccc3n2)cc(OC)c1
  RP-LC retention time: 1110 s

## COc1ccc(-n2c(=O)c(C(=O)Nc3ccc(F)cc3Cl)c(O)c3cccnc32)cc1
  RP-LC retention time: 1320 s

## O=C(Cc1nnc(-c2ccc3ncccc3c2)o1)Nc1ccc(F)cc1
  RP-LC retention time: 697 s

## COc1ccc(CCC(=O)N2CCN(S(=O)(=O)c3cc4c5c(c3)CCC(=O)N5CCC4)CC2)cc1
  RP-LC retention time: 768 s

## CCCN1C(=O)c2c(C(=O)NCc3cccc(F)c3)ncn2CC1(C)C(=O)NCCC(C)C (centres undefined)
  RP-LC retention time: 843 s

## Cc1ccc(CN2CC(F)(F)C[C@H]2c2nnc(-c3cnccn3)o2)c(C)c1
  RP-LC retention time: 990 s

## O=C(Nc1cccc([N+](=O)[O-])c1)C(=O)N1CCN(c2cccc(Cl)c2)CC1
  RP-LC retention time: 950 s

## O=C(NC1CCN(c2nnc3ccc(Cl)cn23)CC1)c1ccc(N2CCCC2=O)cc1
  RP-LC retention time: 651 s

## O=C(NCc1ccc(Cl)cc1)C1CCN(c2cc(N3CCOCC3)ncn2)CC1
  RP-LC retention time: 663 s

## COc1ccc(NC(=O)c2cc(S(=O)(=O)N3CCC(C)CC3)cn2C)c(OC)c1
  RP-LC retention time: 1020 s

## CCOc1ccc(S(=O)(=O)N2CCCC(C(=O)NC)C2)cc1C (centres undefined)
  RP-LC retention time: 788 s

## O=C(OCc1cc(-c2ccc3c(c2)OCCO3)on1)c1ccc(Br)o1
  RP-LC retention time: 978 s

## CCC(=O)N1CCc2cc(-c3ccc(C(=O)N4CCC(C(N)=O)CC4)cc3)ccc21
  RP-LC retention time: 667 s

## O=C(CN1C(=O)NC2(CCCCC2)C1=O)NCCc1ccc(Cl)cc1
  RP-LC retention time: 790 s

## O=C(C1CCOCC1)N1CCC(c2noc(-c3ccccn3)n2)C1 (centres undefined)
  RP-LC retention time: 599 s

## CCS(=O)(=O)N1CCN(Cc2ccc(OC)nc2)CC1
  RP-LC retention time: 921 s

## Cn1cc2c3c(cccc31)CN(C(=O)c1cc(F)cc(F)c1)CC2
  RP-LC retention time: 955 s

## CSc1ccc(NC(=O)N2CCc3nc[nH]c3C2)cc1
  RP-LC retention time: 590 s

## Cc1sc2ccn(Cc3ccc(F)cc3)c(=O)c2c1C(=O)NCCN1CCCC1
  RP-LC retention time: 662 s

## COC(=O)c1cc(S(=O)(=O)N2CCCC2C(=O)Nc2cccc(Br)c2)cn1C (centres undefined)
  RP-LC retention time: 963 s

## COc1ccc(NC(=O)Cn2cccc2-c2nc(-c3ccc4c(c3)OCO4)no2)cc1OC
  RP-LC retention time: 1040 s

## CCCNC(=O)C1CCN(c2ccc(SCC(=O)Nc3ccc(Br)cc3)nn2)CC1
  RP-LC retention time: 689 s

## Cc1cc(Cl)ccc1OCc1nc2c3ccccc3ncn2n1
  RP-LC retention time: 1060 s

## O=C(NC1CC1)c1cc(-c2ccccc2)ns1
  RP-LC retention time: 836 s

## CCC(C)NC(=O)c1cc(-c2ccc(Cl)cc2)[nH]c1C (centres undefined)
  RP-LC retention time: 923 s

## COc1ccc2c(c1)C1CC(C)(O2)N(C)C(=O)C1S(=O)(=O)c1ccc(C(C)C)cc1 (centres undefined)
  RP-LC retention time: 1160 s

## Cc1ccc(-n2cc3c(c(C(=O)Nc4cccnc4)c2=O)CC(C)(C)CC3=O)cc1
  RP-LC retention time: 734 s

## CCOc1ccccc1NC(=O)N1CCC(n2c(C(F)(F)F)nc3cccnc32)CC1
  RP-LC retention time: 976 s

## O=C(c1ccco1)N1CCCn2nc(-c3cccc(Cl)c3)cc2C1
  RP-LC retention time: 861 s

## Cc1ccc(Cn2cccc2C(=O)C(=O)N2CCN(c3ccccn3)CC2)cc1C
  RP-LC retention time: 726 s

## COC1CCC12CCN(C(=O)C1CC1)CC2 (centres undefined)
  RP-LC retention time: 710 s

## O=C1CC(c2noc(-c3cc(F)cc(F)c3)n2)CN1c1ccc(F)c(Cl)c1 (centres undefined)
  RP-LC retention time: 1110 s

## CC1Oc2ccc(-c3csc(NC(=O)c4cccc(F)c4)n3)cc2N(C)C1=O (centres undefined)
  RP-LC retention time: 943 s

## O=C(c1cc(S(=O)(=O)N2CCCC(C(=O)N3CCCCCC3)C2)c[nH]1)N1CCCCCC1 (centres undefined)
  RP-LC retention time: 824 s

## CC(=O)Nc1ccc(C2(C(=O)NCc3cccc(F)c3)CCC2)cc1
  RP-LC retention time: 751 s

## O=C(c1n[nH]c2c1CCCC2)N1CCN(c2ccc(=O)n(-c3ccc(Cl)cc3)n2)CC1
  RP-LC retention time: 758 s

## Cc1ccc(Nc2nc(C)cc(N3CCN(S(=O)(=O)c4c(C)cc(C)cc4C)CC3)n2)cc1
  RP-LC retention time: 917 s

## CC(C)n1cnc(S(=O)(=O)N2CCC(C(=O)NCc3ccc(Br)cc3)CC2)c1
  RP-LC retention time: 782 s

## CC(C)NC(=O)c1ccc(OCC2CCN(C(=O)Cc3cccc(F)c3)CC2)cc1
  RP-LC retention time: 845 s

## CCN1c2ccc(F)cc2C(=O)NC12CCN(C(=O)c1cccc(OC)c1)CC2
  RP-LC retention time: 786 s

## CCCn1cc(S(=O)(=O)Nc2ccc(F)c(C)c2)c2cccnc21
  RP-LC retention time: 923 s

## Cc1cccc2nnc(N3CCN(C(=O)c4ccc(C(F)(F)F)cc4)CC3)n12
  RP-LC retention time: 716 s

## O=C(NCCc1csc(-c2ccccc2)n1)C1CCN(C(=O)c2cccc(Cl)c2)CC1
  RP-LC retention time: 846 s

## COc1ccc(-c2nc(-c3cccc(-c4ccn[nH]4)c3)no2)cc1OC
  RP-LC retention time: 905 s

## CC(C)n1nc(CNC(=O)c2ccc(Br)o2)c2ccccc21
  RP-LC retention time: 926 s

## Cc1cc2nn(CC(=O)Nc3cccc(Cl)c3)c(=O)n2c(Nc2ccccc2C)n1
  RP-LC retention time: 1100 s

## CCOC(=O)c1cc2c([nH]c1=O)CC(c1ccc(C)cc1)CC2=O (centres undefined)
  RP-LC retention time: 780 s

## CC1CCN(S(=O)(=O)c2ccc(-c3nnc(C(=O)NCCN4CCCCCC4)o3)cc2)CC1
  RP-LC retention time: 726 s

## CCNC(=O)c1cn(-c2ccc(-c3nc(C(C)(C)C)no3)cn2)cn1
  RP-LC retention time: 858 s

## CCN(CC)C(=O)c1cc2c(s1)CCC(C(=O)N1CCC(C)CC1)C2 (centres undefined)
  RP-LC retention time: 806 s

## Cc1cccc(NC(=O)N2CCCC2c2cc(C)no2)c1 (centres undefined)
  RP-LC retention time: 780 s

## COc1ccc(NC(=O)CCC2CCN(c3cc(NC4CC4)ncn3)CC2)c(OC)c1
  RP-LC retention time: 688 s

## CCCNC(=O)C1CCCN(c2ccc(SCC(=O)Nc3cc(C)ccc3C)nn2)C1 (centres undefined)
  RP-LC retention time: 656 s

## O=c1ccn(-c2ccc(F)c(F)c2)nc1-c1nc(-c2ccc(F)cc2)no1
  RP-LC retention time: 904 s

## CCCc1cc(C2CCCN2C(=O)NCc2ccc(F)cc2)no1 (centres undefined)
  RP-LC retention time: 873 s

## Clc1ccc2nc(-c3ccc(N4CCOCC4)cc3)c(Nc3ccc4c(c3)OCCO4)n2c1
  RP-LC retention time: 694 s

## CC(C)(C)c1csc(-c2csc(S(=O)(=O)NCc3ccc(Cl)cc3)c2)n1
  RP-LC retention time: 1340 s

## CN1C(=O)CCCCC1C(=O)N1CCOCC1 (centres undefined)
  RP-LC retention time: 556 s

## O=C(Nc1cccc(C(=O)N2CCN(c3ccc(Cl)cc3)CC2)c1)C1=CSCCO1
  RP-LC retention time: 955 s

## CCOc1ccc(S(=O)(=O)N2CCCC(C(=O)NCCCO)C2)cc1C (centres undefined)
  RP-LC retention time: 736 s

## O=C1COc2ccc(S(=O)(=O)N3CCC(C(=O)N4CCOCC4)CC3)cc2N1
  RP-LC retention time: 620 s

## COc1ccccc1Nc1nc(-c2ccccc2)c(CC(=O)O)s1
  RP-LC retention time: 891 s

## Cc1ccc(S(=O)(=O)Cc2nc(-c3cccc(Br)c3)no2)cc1
  RP-LC retention time: 1040 s

## CC(C)n1cnc(S(=O)(=O)N2CCCC(C(=O)Nc3ccc(F)cc3)C2)c1 (centres undefined)
  RP-LC retention time: 765 s

## COc1ccc(-n2ccnc(NC(=O)Nc3ccc(F)cc3)c2=O)cc1OC
  RP-LC retention time: 848 s

## COc1cc(NS(=O)(=O)c2cn(C(C)C)c3ncccc23)cc(OC)c1
  RP-LC retention time: 876 s

## Cc1cccc(NS(=O)(=O)c2cc(-c3[nH]ncc3C(=O)N3CCCCC3)oc2C)c1C
  RP-LC retention time: 822 s

## CCOc1cccc(CNC(=O)c2nc(N3CCSCC3)c3cnn(C)c3n2)c1
  RP-LC retention time: 854 s

## CC(C)Cn1c(=O)c(C(=O)NCc2ccccc2F)nc2cccnc21
  RP-LC retention time: 868 s

## CCc1nc2cc(-c3noc(Cc4cccc(C(F)(F)F)c4)n3)ccc2o1
  RP-LC retention time: 1170 s

## CCc1nc2cc(N3CCCC(C(=O)NCCN4CCCC4)C3)cnc2nc1CC (centres undefined)
  RP-LC retention time: 601 s

## O=C1CCCc2cc(S(=O)(=O)N3CCC(C(=O)Nc4ccc(F)cc4)CC3)ccc2N1
  RP-LC retention time: 749 s

## Cc1cccc(CNC(=O)c2cc(C(C)(C)C)n3nccc3n2)c1
  RP-LC retention time: 1230 s

## Cc1ccsc1-c1nnc(CC(=O)N2CCN(c3ccccc3)CC2)o1
  RP-LC retention time: 872 s

## O=C(Cc1ccsc1)N1CCC([C@@H]2CNC[C@H]2CO)CC1
  RP-LC retention time: 568 s

## CCN1c2ccccc2C(=O)NC12CCN(C(=O)c1cc(C)cc(C)c1)CC2
  RP-LC retention time: 868 s

## Cc1nc(C2CCOCC2)n(C2CCN(S(=O)(=O)c3ccc(C(C)(C)C)cc3)C2)n1 (centres undefined)
  RP-LC retention time: 871 s

## Cc1ccccc1CNC(=O)CN1CCN(Cc2ccc(F)cc2)C1=O
  RP-LC retention time: 803 s

## CN(C)c1ccc(C(CNC(=O)c2cccs2)N(C)C)cc1 (centres undefined)
  RP-LC retention time: 618 s

## COc1cccc(CNC(=O)Nc2cc3c(cc2N2CCOCC2)n(C)c(=O)n3C)c1
  RP-LC retention time: 723 s

## O=C(Nc1nnc(-c2ccsc2)o1)C1CC(=O)N(c2ccc(Cl)cc2)C1 (centres undefined)
  RP-LC retention time: 718 s

## Cc1nc(-c2ccccc2)cc2nn(CC(=O)N3CCC(C)CC3)c(=O)n12
  RP-LC retention time: 903 s

## CN(CCc1noc(-c2ccccc2)n1)C(=O)Nc1ccccc1Br
  RP-LC retention time: 956 s

## COc1cc(OC)c(NS(=O)(=O)c2c(C)sc(C)c2-c2cc(C(F)(F)F)on2)cc1Cl
  RP-LC retention time: 1170 s

## Cc1nnc2ccc(NC(=O)Nc3ccc(F)cc3)cn12
  RP-LC retention time: 660 s

## O=C(Nc1ccc2c(c1)CCC2)C1CCc2nc(N3CCCCC3)ncc2C1 (centres undefined)
  RP-LC retention time: 905 s

## Cc1cccc2c(C(=O)NC3CC3)cc(=O)[nH]c12
  RP-LC retention time: 614 s
